Data published in PubChem BioAssay AID330 (DTP/NCI, 2004).
Values joined by “and” are separate entries in the source; they are usually repeats but may differ in a detail not shown here. Equal entries are not always repeated. Toxic doses and inconclusive results are not listed.

System: P388 leukemia ip, CD2F1 mice, survival T/C
Assay: NCI In Vivo Anticancer Drug Screen. Data for tumor model P388 Leukemia (intraperitoneal) in CD2F1 (CDF1) mice
Conditions: endpoint: median survival time, higher = longer survival
Procedure, shortened: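 Mice carrying the transplanted tumor received test compound or vehicle. Survival was recorded in each group, and the value is the treated-group measurement divided by that of the vehicle-treated control group.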

[1] = dose: 25.0 mg/kg/injection, schedule: Q01DX005 (ip), vehicle: saline
[2] = dose: 50.0 mg/kg/injection, schedule: Q01DX005 (ip), vehicle: saline
[3] = dose: 50.0 mg/kg/injection, schedule: Q01DX005 (ip), vehicle: saline with Tween-80
[4] = dose: 100.0 mg/kg/injection, schedule: Q01DX005 (ip), vehicle: saline with Tween-80
[5] = dose: 200.0 mg/kg/injection, schedule: Q01DX005 (ip), vehicle: saline with Tween-80
[6] = dose: 100.0 mg/kg/injection, schedule: Q01DX001 (ip), vehicle: saline with Tween-80
[7] = dose: 50.0 mg/kg/injection, schedule: Q01DX009 (ip), vehicle: saline with Tween-80
[8] = dose: 100.0 mg/kg/injection, schedule: Q01DX009 (ip), vehicle: saline with Tween-80
[9] = dose: 200.0 mg/kg/injection, schedule: Q01DX009 (ip), vehicle: saline with Tween-80
[10] = dose: 15.0 mg/kg/injection, schedule: Q01DX005 (ip), vehicle: saline with Tween-80
[11] = dose: 30.0 mg/kg/injection, schedule: Q01DX005 (ip), vehicle: saline with Tween-80
[12] = dose: 60.0 mg/kg/injection, schedule: Q01DX005 (ip), vehicle: saline with Tween-80
[13] = dose: 120.0 mg/kg/injection, schedule: Q01DX005 (ip), vehicle: saline with Tween-80
[14] = dose: 60.0 mg/kg/injection, schedule: Q01DX005 (ip), vehicle: saline
[15] = dose: 120.0 mg/kg/injection, schedule: Q01DX005 (ip), vehicle: saline
[16] = dose: 240.0 mg/kg/injection, schedule: Q01DX005 (ip), vehicle: saline with Tween-80

## CCCCCC(CN(C)C)C(=O)/C=C/c1ccc(Br)cc1 (centres undefined)
dose: 6.25 mg/kg/injection, schedule: Q01DX005 (ip), vehicle: saline
  T/C: 100 % of control
dose: 12.5 mg/kg/injection, schedule: Q01DX005 (ip), vehicle: saline
  T/C: 110 % of control
[1]
  T/C: 107 % of control
[2]
  T/C: 102 % of control

## CC1CC(Nc2ccc(NC3=CC(=O)OC(C)C3)cc2)=CC(=O)O1 (centres undefined)
[3]
  T/C: 94 % of control
[4]
  T/C: 92 % of control
[5]
  T/C: 90 % of control

## C=C[C@H]1[C@H](OC2OC(CO)C(O)C(O)C2O)OC=C2C(=O)N3CCc4c([nH]c5ccccc45)C3C[C@H]21 (some centres undefined)
[6]
  T/C: 107 % of control
dose: 200.0 mg/kg/injection, schedule: Q01DX001 (ip), vehicle: saline with Tween-80
  T/C: 94 % of control
dose: 400.0 mg/kg/injection, schedule: Q01DX001 (ip), vehicle: saline with Tween-80
  T/C: 89 % of control

## Cl/N=C1/C=CC(Cl)=C/C1=N/Cl
[1]
  T/C: 100 % of control and 101 % of control
[2]
  T/C: 101 % of control and 102 % of control and 115 % of control
dose: 100.0 mg/kg/injection, schedule: Q01DX005 (ip), vehicle: saline
  T/C: 105 % of control and 106 % of control and 120 % of control
dose: 200.0 mg/kg/injection, schedule: Q01DX005 (ip), vehicle: saline
  T/C: 98 % of control and 101 % of control and 110 % of control

## O=C(CF)c1ccc(Cl)cc1
[7]
  T/C: 99 % of control
[8]
  T/C: 106 % of control
[9]
  T/C: 111 % of control

## CCOc1c2c(nn(C)c1=O)Oc1ccccc1N2CCCN1CCOCC1
[10]
  T/C: 96 % of control
[11]
  T/C: 90 % of control
[12]
  T/C: 104 % of control and 91 % of control

## O=NN(CCCl)C(=O)Oc1c(Cl)cc(Cl)cc1Cl
dose: 50.0 mg/kg/injection, schedule: Q01DX001 (ip), vehicle: saline with Tween-80
  T/C: 163 % of control
dose: 67.0 mg/kg/injection, schedule: Q01DX001 (ip), vehicle: saline with Tween-80
  T/C: 99 % of control
[6]
  T/C: 193 % of control

## O=c1cc(Br)[nH]c(=O)o1
dose: 25.0 mg/kg/injection, schedule: Q01DX009 (ip), vehicle: saline with Tween-80
  T/C: 91 % of control
[7]
  T/C: 97 % of control
[8]
  T/C: 92 % of control

## Nc1nc(=S)c2[nH]c(-c3ccccc3)nc2[nH]1
dose: 12.5 mg/kg/injection, schedule: Q01DX005 (ip), vehicle: other
  T/C: 106 % of control
dose: 25.0 mg/kg/injection, schedule: Q01DX005 (ip), vehicle: other
  T/C: 100 % of control
dose: 50.0 mg/kg/injection, schedule: Q01DX005 (ip), vehicle: other
  T/C: 102 % of control
dose: 100.0 mg/kg/injection, schedule: Q01DX005 (ip), vehicle: other
  T/C: 100 % of control

## C[Si](C)(C)c1ccc2c(c1O)C(=O)c1ccccc1C2=O
[3]
  T/C: 100 % of control
[4]
  T/C: 100 % of control
[5]
  T/C: 102 % of control

## CCCCCCC(=O)c1c(O)c2ccccc2oc1=O
[12]
  T/C: 100 % of control
[13]
  T/C: 88 % of control

## Cc1oc2ccccc2c(=O)c1CN1CCOCC1
[14]
  T/C: 101 % of control
[15]
  T/C: 103 % of control

## OC1(C#Cc2ccccc2)c2ccccc2C(O)(C#Cc2ccccc2)c2cnccc21 (centres undefined)
[7]
  T/C: 95 % of control
[8]
  T/C: 93 % of control
[9]
  T/C: 87 % of control

## Cc1cc[n+](-c2nc3c([O-])n(C)c(=O)n(C)c-3n2)cc1
dose: 100.0 mg/kg/injection, schedule: Q04DX003 (ip), vehicle: saline
  T/C: 99 % of control
dose: 200.0 mg/kg/injection, schedule: Q04DX003 (ip), vehicle: saline
  T/C: 99 % of control
dose: 400.0 mg/kg/injection, schedule: Q04DX003 (ip), vehicle: saline
  T/C: 94 % of control

## O=S(=O)(Nc1cccnc1)c1ccccc1
[12]
  T/C: 106 % of control
[13]
  T/C: 100 % of control
[16]
  T/C: 105 % of control

## O=C(c1ccc(C(=O)N2CC2)cc1)N1CC1
dose: 10.0 mg/kg/injection, schedule: Q04DX003 (ip), vehicle: saline with Tween-80
  T/C: 118 % of control
dose: 20.0 mg/kg/injection, schedule: Q04DX003 (ip), vehicle: saline with Tween-80
  T/C: 109 % of control

## Cc1ccc(-c2csc3nc(C)cc(=O)n23)cc1
dose: 100.0 mg/kg/injection, schedule: Q04DX003 (ip), vehicle: Klucel (hydroxypropylcellulose) (HPC)
  T/C: 111 % of control
dose: 200.0 mg/kg/injection, schedule: Q04DX003 (ip), vehicle: Klucel (hydroxypropylcellulose) (HPC)
  T/C: 105 % of control
dose: 400.0 mg/kg/injection, schedule: Q04DX003 (ip), vehicle: Klucel (hydroxypropylcellulose) (HPC)
  T/C: 106 % of control

## Cn1ccnc1CC(C)(O)c1ccccc1 (centres undefined)
[12]
  T/C: 103 % of control
[13]
  T/C: 104 % of control
[16]
  T/C: 108 % of control

## CC(=O)[O][Hg][c]1c(N)c(Cl)cc(C)c1F
dose: 3.12 mg/kg/injection, schedule: Q01DX009 (ip), vehicle: Klucel (hydroxypropylcellulose) (HPC)
  T/C: 91 % of control
dose: 6.25 mg/kg/injection, schedule: Q01DX009 (ip), vehicle: Klucel (hydroxypropylcellulose) (HPC)
  T/C: 86 % of control

## CCCCC[N+]1(CC)CCCCC1
dose: 3.12 mg/kg/injection, schedule: Q01DX009 (ip), vehicle: saline
  T/C: 104 % of control
dose: 6.25 mg/kg/injection, schedule: Q01DX009 (ip), vehicle: saline
  T/C: 106 % of control
dose: 12.5 mg/kg/injection, schedule: Q01DX009 (ip), vehicle: saline
  T/C: 104 % of control

## CC1(C(N)C(=O)O)CC(Cl)=NO1 (centres undefined)
dose: 4.0 mg/kg/injection, schedule: Q01DX009 (ip), vehicle: other
  T/C: 108 % of control
dose: 8.0 mg/kg/injection, schedule: Q01DX009 (ip), vehicle: other
  T/C: 103 % of control
dose: 16.0 mg/kg/injection, schedule: Q01DX009 (ip), vehicle: other
  T/C: 100 % of control
dose: 32.0 mg/kg/injection, schedule: Q01DX009 (ip), vehicle: other
  T/C: 103 % of control
dose: 64.0 mg/kg/injection, schedule: Q01DX009 (ip), vehicle: other
  T/C: 103 % of control
dose: 128.0 mg/kg/injection, schedule: Q01DX009 (ip), vehicle: other
  T/C: 94 % of control

## NCCNC[Si](c1ccccc1)(c1ccccc1)c1ccccc1
[10]
  T/C: 102 % of control
[11]
  T/C: 102 % of control

## CC12C=C(C(=O)c3ccccc3)C(CC1)C2(C)C (centres undefined)
[8]
  T/C: 100 % of control
[9]
  T/C: 95 % of control
dose: 400.0 mg/kg/injection, schedule: Q01DX009 (ip), vehicle: saline with Tween-80
  T/C: 90 % of control

## O=C1c2ccccc2C(=O)c2c1cc1c(c2O)OCO1
[12]
  T/C: 86 % of control
[13]
  T/C: 89 % of control
[16]
  T/C: 91 % of control

## CN1C(=O)C2CC(O)C(SC3CC4C(=O)N(C)C(=O)C4CC3O)CC2C1=O (centres undefined)
dose: 25.0 mg/kg/injection, schedule: Q01DX009 (ip), vehicle: water
  T/C: 98 % of control
dose: 50.0 mg/kg/injection, schedule: Q01DX009 (ip), vehicle: water
  T/C: 100 % of control
dose: 100.0 mg/kg/injection, schedule: Q01DX009 (ip), vehicle: water
  T/C: 98 % of control
dose: 200.0 mg/kg/injection, schedule: Q01DX009 (ip), vehicle: water
  T/C: 98 % of control

## CC1(C)OCC(C2OC3OC(C)(C)OC3C2OP(=O)(N2CC2)N2CC2)O1 (centres undefined)
[7]
  T/C: 112 % of control
[8]
  T/C: 105 % of control

## CCOc1cc2c(cc1C(C)c1ccc(Cl)cc1)OCO2 (centres undefined)
[3]
  T/C: 93 % of control
[4]
  T/C: 99 % of control
[5]
  T/C: 93 % of control

## C/C(=N\NC(=S)N1CC(C)OC(C)C1)c1cnccn1 (centres undefined)
dose: 12.5 mg/kg/injection, schedule: Q01DX005 (ip), vehicle: saline with Tween-80
  T/C: 107 % of control
dose: 25.0 mg/kg/injection, schedule: Q01DX005 (ip), vehicle: saline with Tween-80
  T/C: 100 % of control
[3]
  T/C: 101 % of control and 97 % of control

## CNc1c[nH]c(=O)[nH]c1=O
dose: 50.0 mg/kg/injection, schedule: Q01DX005 (ip), vehicle: Klucel (hydroxypropylcellulose) (HPC)
  T/C: 108 % of control
dose: 100.0 mg/kg/injection, schedule: Q01DX005 (ip), vehicle: Klucel (hydroxypropylcellulose) (HPC)
  T/C: 105 % of control
dose: 200.0 mg/kg/injection, schedule: Q01DX005 (ip), vehicle: Klucel (hydroxypropylcellulose) (HPC)
  T/C: 96 % of control

## COc1cc(=O)cc2n(c1=O)CCC2
[14]
  T/C: 94 % of control
[15]
  T/C: 94 % of control
dose: 240.0 mg/kg/injection, schedule: Q01DX005 (ip), vehicle: saline
  T/C: 92 % of control

## CC1SC(C)SC(C(C)(C)O)S1 (centres undefined)
[3]
  T/C: 100 % of control
[4]
  T/C: 100 % of control
[5]
  T/C: 100 % of control
